Test results reported in patent US7588894B2, “Use of ID4 for diagnosis and treatment of cancer” (John Wayne Cancern Institute, priority 2005, dated 2009).
Entries after “also recorded” stand apart in the source; their conditions may differ.

Tests used:
Format in all cases: cell-based
[1] = test system: ID4 promoter region in SW480; assay: Methylation-specific PCR of ID4 promoter region after 5Aza treatment, SW480; settings: SW480, 5 ug/mL of 5Aza for 48 hours; untreated only methylated peaks
Description: (§1) Cell Lines. Three CRC cell lines SW480, DLD1, and LOVO (American Type Culture Collection, Manassas, Va.) were analyzed in this study. Genomic DNA was extracted from cells as described previously (33). Total RNA was extracted with TRI Reagent (Molecular Research Center, Inc., Cincinnati, Ohio) according to the manufacturer's protocol. […] Cells were seeded at 7×10^5/T-25 flask on day zero; the culture medium was changed on day two, and cells were then treated with 5Aza at final concentrations of 5 ug/mL for 48 hours (SW480 and DLD1) and 10 ug/mL for 72 hours (DLD1). After treatment, cells were harvested for DNA and RNA as described above. Sodium bisulfite modification was applied on extracted genomic DNA of tissue specimens or cell lines for methylation-specific PCR or bisulfite sequencing as described previously (33). Detection of Hypermethylation. Methylation status of ID4 promoter region was analyzed by methylation-specific PCR and bisulfite sequencing. […] PCR products were detected and analyzed by CEQ 8000XL capillary array electrophoresis system (Beckman Coulter, Inc., Fullerton, Calif.) with CEQ 8000 software version 6.0 (Beckman Coulter) as described previously (35). Methylation status was determined by the ratio of the signal intensities of methylated and unmethylated PCR products; samples with methylated to unmethylated ratio larger than 0.2 were determined as methylated.

[2] = test system: ID4 mRNA expression in SW480; assay: ID4 mRNA expression by quantitative real-time reverse transcription-PCR after 5Aza treatment, SW480
Description: (§2) Cell Lines. Three CRC cell lines SW480, DLD1, and LOVO (American Type Culture Collection, Manassas, Va.) were analyzed in this study. Genomic DNA was extracted from cells as described previously (33). Total RNA was extracted with TRI Reagent (Molecular Research Center, Inc., Cincinnati, Ohio) according to the manufacturer's protocol. For ID4 expression restoration study, SW480 and DLD1 were treated with DNA demethylation agent 5-aza-cytidine (5Aza), a known inhibitor of methylation, as described previously (33-35). Cells were seeded at 7×10^5/T-25 flask on day zero; the culture medium was changed on day two, and cells were then treated with 5Aza at final concentrations of 5 ug/mL for 48 hours (SW480 and DLD1) and 10 ug/mL for 72 hours (DLD1). After treatment, cells were harvested for DNA and RNA as described above.
(§3) Analysis of mRNA Expression Level. Reverse-transcriptase reactions were done on 1.0 ug of extracted total RNA with Moloney murine leukemia virus reverse-transcriptase (Promega, Madison, Wis.) with oligodeoxythymidylic acid primers, as described previously (39). Quantitative real-time reverse transcription-PCR assay was done on the iCycler iQ Real-Time thermocycler detection system (Bio-Rad Laboratories, Hercules, Calif.; 39). For each PCR, the reaction mixture consisted of cDNA template synthesized by reverse-transcription from 250 ng of total RNA, 0.2 mmol/L of forward primer (5′-CGCTCACTGCGCTCAACAC-3′), 0.2 mmol/L of reverse primer (5′-TCAGGCGGCCGCACACCT-3′), and 0.6 mmol/L of fluorescence resonance energy transfer probe (5′-FAM-[…]-BHQ-3′). […] Absolute copy numbers were determined by a standard curve with serial dilutions (10^8 to 10^1 copies) of DNA containing ID4 or GAPDH cDNA sequence. […] The expression level of the housekeeping gene GAPDH was measured as an internal reference with a standard curve to determine the integrity of template RNA for all of the specimens. The ratio of ID4 and GAPDH mRNA level was calculated as follows: (absolute copy number of ID4)/(absolute copy number of GAPDH) as described previously (39).

[3] = test system: ID4 promoter region in SW480; assay: Bisulfite sequencing of ID4 promoter region after 5Aza treatment, SW480; settings: SW480, 5 ug/mL of 5Aza for 48 hours; nontreated cells all CpG sites methylated
Description: as §2
(§4) Sodium bisulfite modification was applied on extracted genomic DNA of tissue specimens or cell lines for methylation-specific PCR or bisulfite sequencing as described previously (33).
(§5) For bisulfite sequencing, the primer set was as follows: forward, 5′-[…]-3′; and reverse, 5′-[…]-3′, with Y═C or T, R=G or A, as described previously (32). […] Sequences were read by CEQ 8000XL capillary array electrophoresis system (Beckman Coulter) with CEQ 8000 software version 6.0 (Beckman Coulter) as described previously (37).

[4] = test system: CRC cell lines; assay: mRNA expression in CRC cell lines after 5Aza treatment (summary statements)
Description: Cell Lines. Three CRC cell lines SW480, DLD1, and LOVO (American Type Culture Collection, Manassas, Va.) were analyzed in this study. Genomic DNA was extracted from cells as described previously (33). Total RNA was extracted with TRI Reagent (Molecular Research Center, Inc., Cincinnati, Ohio) according to the manufacturer's protocol. For ID4 expression restoration study, SW480 and DLD1 were treated with DNA demethylation agent 5-aza-cytidine (5Aza), a known inhibitor of methylation, as described previously (33-35). […]
as §3, with “Reverse-transcriptase reactions were done on 1.0 ug of extracted total RNA with Moloney murine leukemia virus reverse-transcriptase (Promega, Madison, Wis.) with oligodeoxythymidylic acid primers, as described previously (39).” left out, “The ratio of ID4 and GAPDH mRNA level was calculated as follows: (absolute copy number of ID4)/(absolute copy number of GAPDH) as described previously (39).” left out

[5] = test system: ID4 promoter region in DLD1; assay: Bisulfite sequencing of ID4 promoter region after 5Aza treatment, DLD1; settings: DLD1, 10 ug/mL of 5Aza for 72 hours
Description: as §2, §4, §5

[6] = test system: ID4 mRNA expression in DLD1; assay: ID4 mRNA expression by quantitative real-time reverse transcription-PCR after 5Aza treatment, DLD1
Description: as §2
Analysis of mRNA Expression Level. Reverse-transcriptase reactions were done on 1.0 ug of extracted total RNA with Moloney murine leukemia virus reverse-transcriptase (Promega, Madison, Wis.) with oligodeoxythymidylic acid primers, as described previously (39). Quantitative real-time reverse transcription-PCR assay was done on the iCycler iQ Real-Time thermocycler detection system (Bio-Rad Laboratories, Hercules, Calif.; 39). For each PCR, the reaction mixture consisted of cDNA template synthesized by reverse-transcription from 250 ng of total RNA, 0.2 mmol/L of forward primer (5′-CGCTCACTGCGCTCAACAC-3′), 0.2 mmol/L of reverse primer (5′-TCAGGCGGCCGCACACCT-3′), and 0.6 mmol/L of fluorescence resonance energy transfer probe (5′-FAM-[…]-BHQ-3′). PCR amplification was done in a 20-ul reaction volume for 45 cycles of 30 seconds at 94° C., 30 seconds at 58° C., and 30 seconds at 72° C. with 3 mmol/L of Mg^2+. Absolute copy numbers were determined by a standard curve with serial dilutions (10^8 to 10^1 copies) of DNA containing ID4 or GAPDH cDNA sequence. Analysis without templates was done as a negative control in each study. PCR products were electrophoresed on 2% agarose gels to confirm correct product size and absence of nonspecific bands. The expression level of the housekeeping gene GAPDH was measured as an internal reference with a standard curve to determine the integrity of template RNA for all of the specimens. The ratio of ID4 and GAPDH mRNA level was calculated as follows: (absolute copy number of ID4)/(absolute copy number of GAPDH) as described previously (39).

[7] = test system: ID4 promoter region in DLD1; assay: Methylation-specific PCR of ID4 promoter region after 5Aza treatment, DLD1; settings: DLD1, 10 ug/mL of 5Aza for 72 hours; untreated only methylated peaks
Description: as §1

Nc1ncn([C@@H]2O[C@H](CO)[C@@H](O)[C@H]2O)c(=O)n1 [5Aza, 5-aza-cytidine]
Methylation-specific PCR result of ID4 promoter [1]: Unmethylated peaks appeared; also recorded: showed an unmethylation-specific peak | ID4 copy number ([2]; SW480, 5 ug/mL of 5Aza for 48 hours, untreated undetectable (0)): 4.7×10^2 copies/250 ng of total RNA | ID4 expression ratio (ID4 copy number)/(GAPDH copy number) ([2]; SW480, 5Aza-treated, untreated 0): 2.8 × 10^−3 | GAPDH copy number ([2]; SW480, 5Aza-treated, untreated 4.6 × 10^6): 1.7 × 10^5 copies/250 ng of total RNA | Methylation status of CpG sites by bisulfite sequencing [3]: most CpG sites were changed to unmethylated form | ID4 mRNA expression in hypermethylated CRC cell lines ([4]; 5-aza-cytidine treatment): could be restored | GAPDH mRNA ([4]; after 5Aza treatment, CRC cell lines): decreased | Methylation status of CpG sites by bisulfite sequencing [5]: CpG sites partially lost their methylation | ID4 expression restoration ([6]; DLD1, 5 ug/mL of 5Aza for 48 hours): did not overtly restore ID4 expression | ID4 copy number ([6]; DLD1, 10 ug/mL of 5Aza for 72 hours, untreated undetectable (0)): 4.8×10^2 copies/250 ng of total RNA | ID4 expression ratio (ID4 copy number)/(GAPDH copy number) ([6]; DLD1, 5Aza-treated, untreated 0): 4.8 × 10^−3 | GAPDH copy number ([6]; DLD1, 5Aza-treated, untreated 5.6 × 10^5): 9.9 × 10^4 copies/250 ng of total RNA | Methylation-specific PCR result of ID4 promoter [7]: Unmethylated peaks appeared; also recorded: produced an unmethylation-specific peak
